Data as given in patent publication US20080234291A1, “Mitratapide Oral Solution” (priority 2004, published 2008).
Values after ≈ are worked out from the molar mass of the structure shown.

Tests used:
[1] = solubility of mitratapide in different pharmaceutical solvents; type: physicochemical; settings: about 22° C.
[2] = solubility of mitratapide in water; type: physicochemical
Experimental: Since mitratapide has a solubility of less than 0.5 μg/ml in water, which can be increased to 0.4 mg/ml at a pH of 1.2, the presence of a solubilizing agent is necessary for the preparation of aqueous solutions. Hydroxypropyl-β-cyclodextrin (HP-β-CD) is a suitable solubilizing agent with which mitratapide forms higher order water soluble complexes. In order to obtain an aqueous solution comprising mitratapide with a concentration of 5 mg/ml it is necessary to use HP-β-CD in an amount of 250 mg/ml and adjusting the pH to 4. Furthermore it is necessary to add an antimicrobial preservative to these aqueous HP-β-CD solutions to protect them against microbial spoilage during manufacture or use. The addition of benzoic acid, a well known antimicrobial preservative for acidic aqueous solutions having a pH ≦4.5, however caused a precipitation of mitratapide probably due to a competition between mitratapide and benzoic acid for inclusion into the HP-β-CD cavity. To compensate, the HP-β-CD concentration had to be increased from 250 mg/ml to 400 mg/ml to solubilize mitratapide at a concentration of 5 mg/ml. […]

With `CCC(C)n1ncn(-c2ccc(N3CCN(c4ccc(OCC5COC(CSc6nncn6C)(c6ccc(Cl)cc6)O5)cc4)CC3)cc2)c1=O` (stereo not drawn) [mitratapide, (−)-[2S-[2α,4α(S*)]]-4-[4-[4-[4-[[2-(4-chlorophenyl)-2-[[(4-methyl-4H-1,2,4-triazol-3-yl)thio]methy]-1,3-dioxolan-4-yl]methoxy]pheny]-1-piperazinyl]phenyl]-2,4-dihydro-2-(1-methylpropyl)-3H-1,2,4-triazol-3-one] the solubility ([1]; caprylic/capric/linoleic acid triglyceride (Miglyol 818), oil or lipid, caprylidcapridlinoleic acid triglyceride (Miglyol 818 ®)) was < 5000 µg/mL, the solubility ([1]; oil or lipid, apricot Kernel oil PEG-6 complex (Labrafil 1944CS ®)) was < 5000 µg/mL and the solubility ([1]; oil or lipid, caprylic/capric acid triglyceride (Miglyol 812 ®)) was < 5000 µg/mL. The solubility ([1]; oil or lipid, caprylic/capric diester of propylene glycol) was < 5000 µg/mL, the solubility ([1]; oil or lipid, caprylic/capric/succinic acid triglyceride (Miglyol 829 ®)) was < 5000 µg/mL and the solubility ([1]; oil or lipid, caprylocaproyl-8 glyceride (Labrasol ®)) was > 5000 µg/mL. For the same compound, the solubility ([1]; oil or lipid, corn oil PEG-6 complex (Labrafil 2125CS ®)) was < 5000 µg/mL, the solubility ([1]; oil or lipid, sesame oil) was < 50 µg/mL and the solubility ([1]; organic solvent or mixture, diethylene glycol monoethyl ether (Transcutol ®)) was > 5000 µg/mL. For the same compound, the solubility ([1]; organic solvent or mixture, dimethyl isosorbide (2,5-di-O-methyl-1,4:3,6-dianhydro D-glucitol)) was > 5000 µg/mL, the solubility ([1]; propylene glycol monolaurate (Lauroglycol), oil or lipid, Dropylene glycol monolaurate (Lauroglycol ®)) was > 5000 µg/mL and the solubility ([2]; water at pH 1.2, pH 1.2, simulated gastric fluid, pH of 1.2, read-out: solubility in water at pH 1.2) was 400 µg/mL (≈ 0.558 mM). The solubility ([2]; water, read-out: solubility in water) was < 0.5 µg/mL.
